Values quoted from earlier work, collected in patent US6737381B1, “Phytosanitary composition comprising at least a water soluble agent and a modified oil” (Institut National de la Recherche Agronomique, priority 1999, dated 2004).

Conditions: hydrophilic herbicide

SMILES: O=C(O)CNCP(=O)(O)O [glyphosate, N-(phosphonomethyl)glycine]
- log P: < −3.4
